Reference: patent US12145929B2, “Piperidine derivative and pharmaceutical composition for inhibiting autotaxin comprising same” (NEXTGEN BIOSCIENCE CO., LTD., priority 2021, dated 2024)

Biological target: human Autotaxin protein (Homo sapiens, UniProt Q13822)
Test: Evaluation of inhibitory activity against human Autotaxin protein (18:1 LysoPC substrate, choline assay kit, absorbance 570 nm)
Type: biochemical
Details: compound at 500 nM, 2 hours at 37° C.
Method: The solution of each synthesized compound (80 uM, 100% dimethyl sulfoxide) was sequentially diluted 5 times with dimethyl sulfoxide to prepare 6 concentrations. Each concentration of compound was diluted two-fold with 1× test buffer (50 mM Tris-Cl (pH 8.0), 5 mM KCl, 1 mM CaCl2), 1 mM MgCl2, 140 mM NaCl, deionized water, 1 mg/mL BSA), and 1 uL (1.25% dimethyl sulfoxide) of this diluted mixture was dispensed into each well of a 96 well clear round bottom plate. 9 uL of 1× test buffer were added to each well, followed by the addition of 20 uL of 240 nM human Autotaxin protein (buffer: 50 mM Tris-HCl, pH 8.0, with 150 mM sodium chloride and 20% glycerol). 10 uL of sonicated 360 uM 18:1 LysoPC (diluted with 1× test buffer) were added to each well. The reaction was performed for 2 hours in a shaking incubator at 37° C., and a secondary reaction mixture (choline assay kit, KA1662) (65 uL of 1× test buffer: 1 uL of choline oxidase: 1 uL of dye probe) was prepared. 60 uL of the secondary reaction mixture were added to the reaction plate and reacted on a shaker for 30 minutes. Using a SpectraMax iD3 microplate reader, the absorbance was measured at a wavelength of 570 nm. The percentage of inhibition activity (% inhibition) was calculated by the Formula: (1−Absorbancetestgroup/Absorbancecontrol group)×100.

Row | Structure (SMILES) | inhibition at 0.5 µM | inhibition (%) at 500 nM
1 | c1ccc2c(c1)CC(Nc1ncc(-c3nnc(N4CCC(c5cnn[nH]5)CC4)o3)cn1)C2 [Example 1, 5-(5-(4-(1H-1,2,3-Triazol-5-yl)piperidin-1-yl)-1,3,4-oxadiazol-2-yl)-N-(2,3-dihydro-1H-inden-2-yl)pyrimidin-2-amine] | 99% | 
2 | Fc1ccc2c(c1)CC(Nc1ncc(-c3nnc(N4CCC(c5cnn[nH]5)CC4)o3)cn1)C2 (stereo not shown) [Example 2, 5-(5-(4-(1H-1,2,3-Triazol-5-yl)piperidin-1-yl)-1,3,4-oxadiazol-2-yl)-N-(5-fluoro-2,3-dihydro-1H-inden-2-yl)pyrimidin-2-amine] | 100% | 
3 | Clc1ccc2c(c1)CC(Nc1ncc(-c3nnc(N4CCC(c5cnn[nH]5)CC4)o3)cn1)C2 (stereo not shown) [Example 3, 5-(5-(4-(1H-1,2,3-Triazol-5-yl)piperidin-1-yl)-1,3,4-oxadiazol-2-yl)-N-(5-chloro-2,3-dihydro-1H-inden-2-yl)pyrimidin-2-amine] | 100% | 
4 | Brc1ccc2c(c1)CC(Nc1ncc(-c3nnc(N4CCC(c5cnn[nH]5)CC4)o3)cn1)C2 (stereo not shown) [Example 4, 5-(5-(4-(1H-1,2,3-Triazol-5-yl)piperidin-1-yl)-1,3,4-oxadiazol-2-yl)-N-(5-bromo-2,3-dihydro-1H-inden-2-yl)pyrimidin-2-amine] | 90% | 
5 | Fc1cc2c(cc1F)CC(Nc1ncc(-c3nnc(N4CCC(c5cnn[nH]5)CC4)o3)cn1)C2 [Example 5, 5-(5-(4-(1H-1,2,3-Triazol-5-yl)piperidin-1-yl)-1,3,4-oxadiazol-2-yl)-N-(5,6-difluoro-2,3-dihydro-1H-inden-2-yl)pyrimidin-2-amine] | 100% | 
6 | Clc1cc2c(cc1Cl)CC(Nc1ncc(-c3nnc(N4CCC(c5cnn[nH]5)CC4)o3)cn1)C2 [Example 6, 5-(5-(4-(1H-1,2,3-Triazol-5-yl)piperidin-1-yl)-1,3,4-oxadiazol-2-yl)-N-(5,6-dichloro-2,3-dihydro-1H-inden-2-yl)pyrimidin-2-amine] | 91% | 
7 | c1cnc2c(n1)CC(Nc1ncc(-c3nnc(N4CCC(c5cnn[nH]5)CC4)o3)cn1)C2 [Example 7, N-(5-(5-(4-(1H-1,2,3-triazol-5-yl)piperidin-1-yl)-1,3,4-oxadiazol-2-yl)pyrimidin-2-yl)-6,7-dihydro-5H-cyclopenta[b]pyrazin-6-amine] | 40% | 
8 | c1ccc2c(c1)CC(Nc1ccc(-c3nnc(N4CCC(c5cnn[nH]5)CC4)o3)nn1)C2 [Example 8, 6-(5-(4-(1H-1,2,3-Triazol-5-yl)piperidin-1-yl)-1,3,4-oxadiazol-2-yl)-N-(2,3-dihydro-1H-inden-2-yl)pyridazin-3-amine] | 14% | 
9 | c1ccc2c(c1)CC(Nc1ncc(-c3nnc(N4CCC(n5cncn5)CC4)o3)cn1)C2 [Example 9, 5-(5-(4-(1H-1,2,4-Triazol-1-yl)piperidin-1-yl)-1,3,4-oxadiazol-2-yl)-N-(2,3-dihydro-1H-inden-2-yl)pyrimidin-2-amine] | 81% | 
10 | Cc1ncn(C2CCN(c3nnc(-c4cnc(NC5Cc6ccccc6C5)nc4)o3)CC2)n1 [Example 10, N-(2,3-dihydro-1H-inden-2-yl)-5-(5-(4-(3-methyl-1H-1,2,4-triazol-1-yl)piperidin-1-yl)-1,3,4-oxadiazol-2-yl)pyrimidin-2-amine] | 75% | 
11 | CC1CC(c2cnn[nH]2)CCN1c1nnc(-c2cnc(NC3Cc4ccc(Br)cc4C3)nc2)o1 (stereo not shown) [Example 11, N-(5-bromo-2,3-dihydro-1H-inden-2-yl)-5-(5-(2-methyl-4-(1H-1,2,3-triazol-5-yl)piperidin-1-yl)-1,3,4-oxadiazol-2-yl)pyrimidin-2-amine] | 99% | 
12 | Brc1ccc2c(c1)CC(Nc1ccc(-c3nnc(N4CCC(c5cnn[nH]5)CC4)o3)cn1)C2 (stereo not shown) [Example 12, 5-(5-(4-(1H-1,2,3-Triazol-5-yl)piperidin-1-yl)-1,3,4-oxadiazol-2-yl)-N-(5-bromo-2,3-dihydro-1H-inden-2-yl)pyridin-2-amine] | 84% | 

Other lines, results leading:

Row | inhibition at 0.5 µM | inhibition (%) at 500 nM | Structure (SMILES)
13 | 75% |  | Brc1ccc2c(c1)CC(Nc1cnc(-c3nnc(N4CCC(c5cnn[nH]5)CC4)o3)cn1)C2 (stereo not shown) [Example 13, 5-(5-(4-(1H-1,2,3-Triazol-5-yl)piperidin-1-yl)-1,3,4-oxadiazol-2-yl)-N-(5-bromo-2,3-dihydro-1H-inden-2-yl)pyrazin-2-amine]
14 | 5% |  | Clc1cc(NC2Cc3ccc(Br)cc3C2)ncc1-c1nnc(N2CCC(c3cnn[nH]3)CC2)o1 (stereo not shown) [Example 14, 5-(5-(4-(1H-1,2,3-Triazol-5-yl)piperidin-1-yl)-1,3,4-oxadiazol-2-yl)-N-(5-bromo-2,3-dihydro-1H-inden-2-yl)-4-chloropyridin-2-amine]
15 | 100% |  | Clc1cc(Cl)cc(CNc2ncc(-c3nnc(N4CCC(c5cnn[nH]5)CC4)o3)cn2)c1 [Example 15, 5-(5-(4-(1H-1,2,3-Triazol-5-yl)piperidin-1-yl)-1,3,4-oxadiazol-2-yl)-N-(3,5-dichlorobenzyl)pyrimidin-2-amine]
16 |  | 84% | Clc1cc(Cl)cc(CCNc2ncc(-c3nnc(N4CCC(c5cnn[nH]5)CC4)o3)cn2)c1 [Example 16, 5-(5-(4-(H-1,2,3-Triazol-5-yl)piperidin-1-yl)-1,3,4-oxadiazol-2-yl)-N-(3,5-dichlorophenethyl)pyrimidin-2-amine]
17 | 92% |  | O=C(CCc1cnc(NC2Cc3ccccc3C2)nc1)N1CCC(c2cnn[nH]2)CC1 [Example 17, 1-(4-(1H-1,2,3-Triazol-5-yl)piperidin-1-yl)-3-(2-((2,3-dihydro-1H-inden-2-yl)amino)pyrimidin-5-yl)propan-1-one]
18 | 85% |  | O=C(CCc1cnc(NC2Cc3ccccc3C2)nc1)N1CCC(c2cnc[nH]2)CC1 [Example 18, 1-(4-(1H-Imidazol-5-yl)piperidin-1-yl)-3-(2-((2,3-dihydro-1H-inden-2-yl)amino)pyrimidin-5-yl)propan-1-one]
19 | 43% |  | O=C(CCCc1nnc(NC2Cc3ccccc3C2)s1)N1CCC(c2cnn[nH]2)CC1 [Example 19, 1-(4-(1H-1,2,3-Triazol-5-yl)piperidin-1-yl)-4-(5-((2,3-dihydro-1H-inden-2-yl)amino)-1,3,4-thiadiazol-2-yl)butan-1-one]
20 | 14% |  | O=C(CCCc1nnc(NC2Cc3ccccc3C2)s1)N1CCC(c2cnc[nH]2)CC1 [Example 20, 1-(4-(1H-Imidazol-5-yl)piperidin-1-yl)-4-(5-((2,3-dihydro-1H-inden-2-yl)amino)-1,3,4-thiadiazol-2-yl)butan-1-one]
21 | 64% |  | O=C(CCCc1nnc(NC2Cc3ccccc3C2)o1)N1CCC(c2cnn[nH]2)CC1 [Example 21, 1-(4-(1H-1,2,3-Triazol-5-yl)piperidin-1-yl)-4-(5-((2,3-dihydro-1H-inden-2-yl)amino)-1,3,4-oxadiazol-2-yl)butan-1-one]
22 | 17% |  | O=C(CCCc1nnc(NC2Cc3ccccc3C2)o1)N1CCC(c2cnc[nH]2)CC1 [Example 22, 1-(4-(1H-Imidazol-5-yl)piperidin-1-yl)-4-(5-((2,3-dihydro-1H-inden-2-yl)amino)-1,3,4-oxadiazol-2-yl)butan-1-one]
23 | 20% |  | O=C(COCc1nnc(NC2Cc3ccccc3C2)s1)N1CCC(c2cnn[nH]2)CC1 [Example 23, 1-(4-(1H-1,2,3-Triazol-5-yl)piperidin-1-yl)-2-((5-((2,3-dihydro-1H-inden-2-yl)amino)-1,3,4-thiadiazol-2-yl)methoxy)ethanone]
24 | 30.2% |  | Fc1cc2c(cc1F)CC(Nc1ncc(-c3nnc(N4CCC(c5nnc(C(F)(F)F)o5)CC4)o3)cn1)C2 [Example 24, N-(5,6-difluoro-2,3-dihydro-1H-inden-2-yl)-5-(5-(4-(5-(trifluoromethyl)-1,3,4-oxadiazol-2-yl)piperidin-1-yl)-1,3,4-oxadiazol-2-yl)pyrimidin-2-amine]
25 | 31.1% |  | Fc1cc2c(cc1F)CC(Nc1ncc(-c3nnc(N4CCC(c5nnc(C(F)F)o5)CC4)o3)cn1)C2 [Example 25, N-(5,6-difluoro-2,3-dihydro-1H-inden-2-yl)-5-(5-(4-(5-(difluoromethyl)-1,3,4-oxadiazol-2-yl)piperidin-1-yl)-1,3,4-oxadiazol-2-yl)pyrimidin-2-amine]
26 | 27.9% |  | Fc1cc2c(cc1F)CC(Nc1ncc(-c3nnc(N4CCC(c5ncon5)CC4)o3)cn1)C2 [Example 26, 5-(5-(4-(1,2,4-Oxadiazol-3-yl)piperidin-1-yl)-1,3,4-oxadiazol-2-yl)-N-(5,6-difluoro-2,3-dihydro-1H-inden-2-yl)pyrimidin-2-amine]
27 | 29% |  | Fc1cc2c(cc1F)CC(Nc1ncc(-c3nnc(N4CCC(c5nnco5)CC4)o3)cn1)C2 [Example 27, 5-(5-(4-(1,3,4-Oxadiazol-2-yl)piperidin-1-yl)-1,3,4-oxadiazol-2-yl)-N-(5,6-difluoro-2,3-dihydro-1H-inden-2-yl)pyrimidin-2-amine]
28 | 52.5% |  | Fc1cc2c(cc1F)CC(Nc1ncc(-c3nnc(N4CCC(n5cnnn5)CC4)o3)cn1)C2 [Example 28, 5-(5-(4-(1H-Tetrazol-1-yl)piperidin-1-yl)-1,3,4-oxadiazol-2-yl)-N-(5,6-difluoro-2,3-dihydro-1H-inden-2-yl)pyrimidin-2-amine]
